Test results: ChEMBL document CHEMBL4665643 (Bioorg Med Chem Lett, 2019)

Experiments:
[1] = molecular target: Ribosomal protein S6 kinase alpha-5 (Homo sapiens) (UniProt O75582); assay: Inhibition of recombinant human GST-tagged full length MSK1 expressed in baculovirus expression system using Ser/Thr 01 as substrate at 0.1 uM incubated for 60 mins by Z'-lyte assay relative to control
[2] = molecular target: Aurora kinase B (Homo sapiens) (UniProt Q96GD4); assay: Inhibition of recombinant human His-tagged full length Aurora B expressed in baculovirus expression system using Ser/Thr 01 as substrate at 0.1 uM incubated for 60 mins by Z'-Lyte assay relative to control
Sequence of Aurora kinase B (Homo sapiens) (Q96GD4 whole entry): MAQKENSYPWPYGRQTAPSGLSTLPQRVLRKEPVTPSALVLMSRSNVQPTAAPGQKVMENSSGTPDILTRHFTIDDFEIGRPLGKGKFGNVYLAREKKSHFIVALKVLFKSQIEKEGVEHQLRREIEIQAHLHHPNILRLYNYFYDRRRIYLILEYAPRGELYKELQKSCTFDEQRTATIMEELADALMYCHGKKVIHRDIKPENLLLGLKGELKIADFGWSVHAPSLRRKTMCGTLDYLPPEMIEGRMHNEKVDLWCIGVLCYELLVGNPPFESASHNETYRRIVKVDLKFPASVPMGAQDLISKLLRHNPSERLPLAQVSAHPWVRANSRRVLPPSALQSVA

[3] = molecular target: T1, Inhibitor of nuclear factor kappa-B kinase subunit beta (Homo sapiens) (UniProt O14920); assay: Inhibition of recombinant human GST-tagged full length IKKbeta expressed in baculovirus expression system using Ser/Thr 05 as substrate at 0.1 uM incubated for 60 mins by Z'-Lyte assay relative to control
T1 sequence (whole entry): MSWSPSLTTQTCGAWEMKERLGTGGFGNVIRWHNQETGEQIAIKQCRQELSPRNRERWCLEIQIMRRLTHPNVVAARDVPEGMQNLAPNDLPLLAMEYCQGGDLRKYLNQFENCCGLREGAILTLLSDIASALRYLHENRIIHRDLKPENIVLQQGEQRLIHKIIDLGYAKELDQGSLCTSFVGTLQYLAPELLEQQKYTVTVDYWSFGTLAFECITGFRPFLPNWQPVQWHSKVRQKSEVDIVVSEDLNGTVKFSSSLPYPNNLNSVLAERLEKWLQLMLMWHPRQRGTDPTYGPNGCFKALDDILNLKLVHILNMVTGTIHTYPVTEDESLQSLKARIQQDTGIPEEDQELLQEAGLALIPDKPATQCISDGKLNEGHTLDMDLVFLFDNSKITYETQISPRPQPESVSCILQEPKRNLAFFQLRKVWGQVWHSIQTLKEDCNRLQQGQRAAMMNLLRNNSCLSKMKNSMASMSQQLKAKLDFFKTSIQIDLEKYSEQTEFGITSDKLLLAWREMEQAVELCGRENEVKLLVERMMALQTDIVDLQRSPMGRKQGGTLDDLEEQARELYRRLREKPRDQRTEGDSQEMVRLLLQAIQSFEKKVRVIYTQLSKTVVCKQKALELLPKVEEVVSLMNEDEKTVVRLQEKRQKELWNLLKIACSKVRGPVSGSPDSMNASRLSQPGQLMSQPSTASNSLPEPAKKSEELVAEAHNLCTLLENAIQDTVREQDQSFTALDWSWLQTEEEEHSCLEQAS

[4] = molecular target: Protein kinase C beta type (Homo sapiens) (UniProt P05771); assay: Inhibition of recombinant human His-tagged full length PKCbeta1 expressed in insect expression system using Ser/Thr 07 as substrate at 0.1 uM incubated for 60 mins by Z'-lyte assay relative to control
Sequence of Protein kinase C beta type (Homo sapiens) (P05771 2-671 limits assumed): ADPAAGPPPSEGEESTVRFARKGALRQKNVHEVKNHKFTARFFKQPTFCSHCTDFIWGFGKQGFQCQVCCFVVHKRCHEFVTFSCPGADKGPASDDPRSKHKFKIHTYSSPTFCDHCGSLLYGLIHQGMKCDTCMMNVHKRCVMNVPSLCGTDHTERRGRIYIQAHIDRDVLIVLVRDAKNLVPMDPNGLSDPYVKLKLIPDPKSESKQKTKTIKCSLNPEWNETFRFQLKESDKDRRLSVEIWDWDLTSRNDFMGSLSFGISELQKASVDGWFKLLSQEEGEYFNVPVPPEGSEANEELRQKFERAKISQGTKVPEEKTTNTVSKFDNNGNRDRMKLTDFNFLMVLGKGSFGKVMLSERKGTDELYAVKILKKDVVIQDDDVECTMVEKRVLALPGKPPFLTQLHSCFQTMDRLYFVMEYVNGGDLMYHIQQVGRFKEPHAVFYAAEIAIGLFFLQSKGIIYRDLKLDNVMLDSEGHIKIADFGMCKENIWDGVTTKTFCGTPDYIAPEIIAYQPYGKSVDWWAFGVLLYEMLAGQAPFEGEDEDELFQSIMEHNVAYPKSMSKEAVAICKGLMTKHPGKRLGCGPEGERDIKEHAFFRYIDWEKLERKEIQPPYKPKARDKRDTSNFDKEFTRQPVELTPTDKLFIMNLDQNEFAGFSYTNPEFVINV

[5] = molecular target: Mitogen-activated protein kinase 9 (Homo sapiens) (UniProt P45984); assay: Inhibition of recombinant human His-tagged full length JNK2 expressed in baculovirus expression system using Ser/Thr 04 as substrate at 0.1 uM incubated for 60 mins by Z'-lyte assay relative to control
Sequence of Mitogen-activated protein kinase 9 (Homo sapiens) (P45984 whole entry, looked up): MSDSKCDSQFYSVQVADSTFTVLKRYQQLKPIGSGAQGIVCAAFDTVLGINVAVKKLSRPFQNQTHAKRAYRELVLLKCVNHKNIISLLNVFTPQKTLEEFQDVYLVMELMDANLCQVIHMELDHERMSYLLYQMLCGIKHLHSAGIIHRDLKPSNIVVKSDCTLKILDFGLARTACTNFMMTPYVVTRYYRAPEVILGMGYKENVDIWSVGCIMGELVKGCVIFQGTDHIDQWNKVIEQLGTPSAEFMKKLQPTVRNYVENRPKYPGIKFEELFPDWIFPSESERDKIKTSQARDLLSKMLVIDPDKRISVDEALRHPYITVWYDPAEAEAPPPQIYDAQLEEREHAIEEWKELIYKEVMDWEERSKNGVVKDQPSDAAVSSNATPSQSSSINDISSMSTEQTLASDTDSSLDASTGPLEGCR

[6] = Lipophilicity, logD of compound; assay type: physicochemical; details: octanol/water
[7] = tested on: RAF proto-oncogene serine/threonine-protein kinase (Homo sapiens), P04049 [Y340D,Y341D]; assay: Inhibition of recombinant human GST-tagged RAF1 Y340D/Y341D double mutant (306 to 648 residues) expressed in baculovirus expression system using Ser/Thr 03 as substrate at 0.1 uM incubated for 60 mins by Z'-Lyte assay relative to control
Sequence of RAF proto-oncogene serine/threonine-protein kinase (Homo sapiens), P04049 [Y340D,Y341D] (P04049 whole entry Y340D/Y341D, the tested form may be a part): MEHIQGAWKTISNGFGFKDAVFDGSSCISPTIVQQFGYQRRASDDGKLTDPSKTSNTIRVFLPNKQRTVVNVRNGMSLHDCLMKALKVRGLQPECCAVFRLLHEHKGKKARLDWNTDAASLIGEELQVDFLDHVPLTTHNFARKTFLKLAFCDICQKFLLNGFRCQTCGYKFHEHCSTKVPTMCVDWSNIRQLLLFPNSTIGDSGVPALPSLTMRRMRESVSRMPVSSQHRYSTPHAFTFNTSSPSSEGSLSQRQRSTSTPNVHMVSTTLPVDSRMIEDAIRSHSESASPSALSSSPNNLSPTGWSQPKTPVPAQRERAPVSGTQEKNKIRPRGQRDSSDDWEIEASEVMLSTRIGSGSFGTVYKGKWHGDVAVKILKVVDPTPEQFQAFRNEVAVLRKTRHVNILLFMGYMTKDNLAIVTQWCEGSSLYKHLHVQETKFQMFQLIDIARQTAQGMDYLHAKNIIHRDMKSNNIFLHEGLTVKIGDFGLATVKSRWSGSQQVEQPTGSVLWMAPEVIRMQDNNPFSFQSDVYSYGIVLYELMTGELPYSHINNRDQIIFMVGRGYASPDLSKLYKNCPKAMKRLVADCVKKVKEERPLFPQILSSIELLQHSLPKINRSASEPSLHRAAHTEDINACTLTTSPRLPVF

[8] = molecular target: Serine/threonine-protein kinase pim-2 (Homo sapiens) (UniProt Q9P1W9); assay: Inhibition of recombinant human GST-tagged full length PIM2 expressed in baculovirus expression system using Ser/Thr 07 as substrate at 0.1 uM incubated for 60 mins by Z'-lyte assay relative to control
Sequence of Serine/threonine-protein kinase pim-2 (Homo sapiens) (Q9P1W9 whole entry, looked up): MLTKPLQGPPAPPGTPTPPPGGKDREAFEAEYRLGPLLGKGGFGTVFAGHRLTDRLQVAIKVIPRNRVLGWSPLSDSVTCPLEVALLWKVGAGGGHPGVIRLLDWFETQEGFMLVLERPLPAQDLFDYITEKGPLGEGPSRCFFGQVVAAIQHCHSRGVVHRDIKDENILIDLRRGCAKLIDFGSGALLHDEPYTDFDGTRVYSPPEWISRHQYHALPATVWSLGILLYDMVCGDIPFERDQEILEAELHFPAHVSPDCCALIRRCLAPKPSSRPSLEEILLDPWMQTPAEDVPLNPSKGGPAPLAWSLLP

[9] = molecular target: Serine/threonine-protein kinase pim-1 (Homo sapiens) (UniProt P11309); assay: Inhibition of recombinant human His-tagged full length PIM1 expressed in baculovirus expression system using Ser/Thr 07 as substrate at 0.1 uM incubated for 60 mins by Z'-lyte assay relative to control
Sequence of Serine/threonine-protein kinase pim-1 (Homo sapiens) (P11309 whole entry, looked up): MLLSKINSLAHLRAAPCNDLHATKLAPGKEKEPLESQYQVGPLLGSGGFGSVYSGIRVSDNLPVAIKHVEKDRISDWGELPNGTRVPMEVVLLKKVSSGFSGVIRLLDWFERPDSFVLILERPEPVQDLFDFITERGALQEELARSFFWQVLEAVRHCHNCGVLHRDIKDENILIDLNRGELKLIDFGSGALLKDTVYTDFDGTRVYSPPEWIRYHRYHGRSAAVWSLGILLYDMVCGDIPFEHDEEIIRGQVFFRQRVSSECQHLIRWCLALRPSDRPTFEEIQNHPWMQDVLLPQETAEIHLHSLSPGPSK

[10] = molecular target: T2, cGMP-dependent protein kinase 2 (Homo sapiens) (UniProt Q13237); assay: Inhibition of recombinant human GST-tagged full length PKG2 expressed in baculovirus expression system using Ser/Thr 01 as substrate at 0.1 uM incubated for 60 mins by Z'-Lyte assay relative to control
T2 sequence (whole entry): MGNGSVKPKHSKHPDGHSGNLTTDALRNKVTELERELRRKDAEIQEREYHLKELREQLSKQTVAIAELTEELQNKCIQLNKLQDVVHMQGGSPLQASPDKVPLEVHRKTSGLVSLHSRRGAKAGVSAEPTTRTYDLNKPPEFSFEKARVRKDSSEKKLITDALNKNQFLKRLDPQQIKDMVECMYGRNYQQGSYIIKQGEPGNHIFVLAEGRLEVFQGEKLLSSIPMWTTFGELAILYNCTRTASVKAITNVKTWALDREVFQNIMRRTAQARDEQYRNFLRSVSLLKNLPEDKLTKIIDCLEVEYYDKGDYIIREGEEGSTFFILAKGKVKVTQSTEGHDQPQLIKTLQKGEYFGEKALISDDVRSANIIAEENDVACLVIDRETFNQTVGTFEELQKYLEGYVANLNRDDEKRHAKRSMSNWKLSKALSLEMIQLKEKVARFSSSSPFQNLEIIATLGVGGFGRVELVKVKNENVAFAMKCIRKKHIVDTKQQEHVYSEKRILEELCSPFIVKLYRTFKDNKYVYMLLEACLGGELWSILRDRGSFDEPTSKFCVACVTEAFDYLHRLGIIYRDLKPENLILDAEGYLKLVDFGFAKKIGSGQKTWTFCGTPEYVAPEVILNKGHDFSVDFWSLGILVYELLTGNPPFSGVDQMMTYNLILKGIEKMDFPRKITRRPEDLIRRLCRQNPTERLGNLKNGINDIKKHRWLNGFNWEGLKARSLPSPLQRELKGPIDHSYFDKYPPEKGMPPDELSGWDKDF

[11] = molecular target: Tyrosine-protein kinase CSK (Homo sapiens) (UniProt P41240); assay: Inhibition of recombinant human GST-tagged full length CSK expressed in Escherichia coli expression system using Tyr 02 as substrate at 0.1 uM incubated for 60 mins by Z'-Lyte assay relative to control
Sequence of Tyrosine-protein kinase CSK (Homo sapiens) (P41240 2-450 limits assumed): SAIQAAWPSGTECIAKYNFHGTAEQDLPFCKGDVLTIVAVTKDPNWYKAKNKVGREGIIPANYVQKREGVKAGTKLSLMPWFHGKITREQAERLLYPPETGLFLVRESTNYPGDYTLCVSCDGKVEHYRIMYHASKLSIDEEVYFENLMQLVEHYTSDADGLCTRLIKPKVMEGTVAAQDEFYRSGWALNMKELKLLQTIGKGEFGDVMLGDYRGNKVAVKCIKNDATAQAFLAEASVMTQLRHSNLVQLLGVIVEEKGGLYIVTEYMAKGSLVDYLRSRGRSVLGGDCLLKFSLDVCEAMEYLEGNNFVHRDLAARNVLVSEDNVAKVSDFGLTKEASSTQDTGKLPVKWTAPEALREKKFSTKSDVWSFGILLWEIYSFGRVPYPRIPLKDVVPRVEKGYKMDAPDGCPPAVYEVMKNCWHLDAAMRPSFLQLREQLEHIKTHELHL

[12] = molecular target: Dual specificity mitogen-activated protein kinase kinase 1 (Homo sapiens) (UniProt Q02750); assay: Inhibition of recombinant human His-tagged full length MEK1 expressed in baculovirus expression system using Ser/Thr 03 as substrate at 0.1 uM incubated for 60 mins by Z'-lyte assay relative to control
Sequence of Dual specificity mitogen-activated protein kinase kinase 1 (Homo sapiens) (Q02750 whole entry): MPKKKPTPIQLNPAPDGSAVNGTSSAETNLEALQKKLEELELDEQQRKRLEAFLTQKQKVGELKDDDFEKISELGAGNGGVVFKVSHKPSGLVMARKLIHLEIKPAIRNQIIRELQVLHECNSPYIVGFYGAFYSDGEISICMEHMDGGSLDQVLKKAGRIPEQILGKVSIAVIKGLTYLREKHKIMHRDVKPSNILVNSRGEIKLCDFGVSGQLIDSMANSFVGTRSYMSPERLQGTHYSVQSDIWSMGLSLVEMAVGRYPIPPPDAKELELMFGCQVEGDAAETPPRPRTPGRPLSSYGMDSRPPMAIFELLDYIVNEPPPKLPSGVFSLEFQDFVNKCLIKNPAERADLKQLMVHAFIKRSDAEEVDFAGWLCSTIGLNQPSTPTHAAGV

[13] = molecular target: Serine/threonine-protein kinase PAK 1 (Homo sapiens) (UniProt Q13153); assay: Inhibition of recombinant human GST-tagged full length PAK1 expressed in baculovirus expression system using Ser/Thr 19 as substrate at 0.1 uM incubated for 60 mins by Z'-lyte assay relative to control
Sequence of Serine/threonine-protein kinase PAK 1 (Homo sapiens) (Q13153 whole entry): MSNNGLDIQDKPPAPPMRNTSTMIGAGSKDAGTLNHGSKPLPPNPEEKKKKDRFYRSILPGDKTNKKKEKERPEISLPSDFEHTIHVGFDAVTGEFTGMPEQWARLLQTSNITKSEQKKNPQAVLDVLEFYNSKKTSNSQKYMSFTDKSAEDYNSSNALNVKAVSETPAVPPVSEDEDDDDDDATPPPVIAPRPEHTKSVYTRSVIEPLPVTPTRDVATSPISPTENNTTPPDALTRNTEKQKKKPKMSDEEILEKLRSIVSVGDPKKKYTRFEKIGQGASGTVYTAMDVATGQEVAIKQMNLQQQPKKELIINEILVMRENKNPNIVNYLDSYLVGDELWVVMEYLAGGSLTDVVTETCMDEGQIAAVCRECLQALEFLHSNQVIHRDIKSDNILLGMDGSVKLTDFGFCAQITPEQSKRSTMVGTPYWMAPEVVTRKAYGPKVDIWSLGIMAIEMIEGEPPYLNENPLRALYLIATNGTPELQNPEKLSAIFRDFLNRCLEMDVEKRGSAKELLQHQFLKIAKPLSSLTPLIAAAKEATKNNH

Sequence of Ribosomal protein S6 kinase alpha-5 (Homo sapiens) (O75582 whole entry, looked up): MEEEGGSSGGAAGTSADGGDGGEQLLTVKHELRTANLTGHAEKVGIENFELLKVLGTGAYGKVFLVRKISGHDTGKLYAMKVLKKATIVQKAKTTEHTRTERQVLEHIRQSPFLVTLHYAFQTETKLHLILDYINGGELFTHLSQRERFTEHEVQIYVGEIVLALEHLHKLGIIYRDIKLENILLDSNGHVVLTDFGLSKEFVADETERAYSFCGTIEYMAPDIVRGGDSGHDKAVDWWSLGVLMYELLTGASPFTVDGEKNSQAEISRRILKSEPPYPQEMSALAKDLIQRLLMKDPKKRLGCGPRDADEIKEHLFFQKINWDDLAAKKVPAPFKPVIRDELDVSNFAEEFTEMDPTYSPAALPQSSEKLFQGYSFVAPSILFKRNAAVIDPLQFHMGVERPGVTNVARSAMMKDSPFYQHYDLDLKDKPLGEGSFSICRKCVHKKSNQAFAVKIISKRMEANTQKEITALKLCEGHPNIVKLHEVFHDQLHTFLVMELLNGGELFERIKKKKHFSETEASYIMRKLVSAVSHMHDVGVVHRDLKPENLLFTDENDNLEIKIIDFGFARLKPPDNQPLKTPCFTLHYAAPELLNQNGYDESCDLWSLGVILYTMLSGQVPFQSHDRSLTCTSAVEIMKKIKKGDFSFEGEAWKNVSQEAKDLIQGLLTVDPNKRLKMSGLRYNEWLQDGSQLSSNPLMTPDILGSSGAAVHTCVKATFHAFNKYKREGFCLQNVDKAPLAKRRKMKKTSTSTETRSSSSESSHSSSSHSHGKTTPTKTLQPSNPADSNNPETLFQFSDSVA

Row | SMILES | inhibition [1] | inhibition [2] | inhibition [3] | inhibition [4] | inhibition [5] | logD [6] | inhibition [7] | inhibition [8] | inhibition [9] | inhibition [10] | inhibition [11] | inhibition [12] | inhibition [13]
1 | O=C(Nc1c[nH]nc1-c1cc(Cl)ccc1OC(F)F)c1cnn2cccnc12 | 3% | 3% | 2% | 24% | 16% | 3.2 | 9% | 18% | 4% | 2% | -2% | -8% | 12%
2 | O=C(Nc1c[nH]nc1-c1cc2ccccc2cc1OC(F)F)c1cnn2cccnc12 | -2% | 5% | -3% | 13% | 0% | 3.5 | 7% | -1% | 4% | 6% | 3% | 0% | -7%
3 | Cn1cc(NC(=O)c2cnn3cccnc23)c(-c2cc(Cl)ccc2OC(F)F)n1 | 5% | 1% | 5% | 2% | -2% | 3 | 3% | 2% | 6% | 6% | 2% | 0% | 2%
